Test results reported in US8012983B2, “Substituted triazolopyrazines useful for the treatment of degenerative and inflammatory diseases” (Galapagos NV, priority 2008, dated 2011).

Legend:
[1] = system: MMP1 expression by activated synovial fibroblasts (RASFs); test: 'MMP assay': complex trigger-induced MMP1 expression by synovial fibroblasts (MMP1 ELISA); type: cell-based; settings: Homo sapiens, Fibroblast; RASFs, complex trigger, 48 hrs; read-out: MMP1 IC50
Description: A 384-well format ELISA for measurement of MMP1 is developed. Various primary antibodies are tested, as well as various ELISA protocols. The following protocol is developed and validated to measure MMP1 levels in SF supernatant in 384 well plates: white Lumitrac 600 384 well plates (Greiner) are coated with 2 μg/mL anti-MMP1 antibody MAB1346 (Chemicon). The antibody is diluted in buffer 40 (1.21 g Tris base (Sigma), 0.58 g NaCl (Calbiochem) and 5 ml 10% NaN3 (Sigma) in 1 L milliQ water and adjusted to pH 8.5). After overnight incubation at 4° C., plates are washed with PBS (80 g NaCl, 2 g KCl (Sigma), 11.5 g Na2HPO4.7H2O and 2 g KH2PO4 in 10 L milliQ; pH 7.4) and blocked with 100 μL/well Casein buffer (2% Casein (VWR International) in PBS). Next day, casein buffer is removed from ELISA plates and replaced by 50 μL/well EC buffer (4 g casein, 2.13 g Na2HPO4 (Sigma), 2 g bovine albumin (Sigma), 0.69 g NaH2PO4.H2O (Sigma), 0.5 g CHAPS (Roche), 23.3 g NaCl, 4 ml 0,5 M EDTA pH 8 (Invitrogen), 5 ml 10% NaN3 in 1 L milliQ and adjusted to pH 7.0). 0.25 mM DTT (Sigma) is added to the thawed samples plates. After removal of the EC buffer, 20 μL of sample is transferred to the ELISA plates. After overnight incubation at 4° C. plates are washed twice with PBS and once with PBST (PBS with 0.05% Tween-20 (Sigma)) and incubated with 35 μL/well biotinylated anti-MMP1 antibody solution (R&D). This secondary antibody is diluted in buffer C (0.82 g NaH2PO4.H2O, 4.82 g Na2HPO4, 46.6 g NaCl, 20 g bovine albumin and 4 mL 0,5M EDTA pH 8 in 2 L milliQ and adjusted to pH 7.0) at a concentration of 5 μg/mL. After 2 h of incubation at RT, plates are washed as described above and incubated with 50 μL/well streptavidin-HRP conjugate (Biosource). Streptavidin-HRP conjugate is diluted in buffer C at a concentration of 0.25 μg/mL. After 45 min, plates are washed as described above and incubated for 5 min with 50 μL/well BM Chem ELISA Substrate (Roche). Readout is performed on the Luminoscan Ascent Luminometer (Labsystems) with an integration time of 200 msec or with an Envision reader (Perkin Elmer).
The increase of MMP1 expression by SFs upon treatment with cytokines relevant in the field of RA (TNF-α, IL1β and OSM) or a combination thereof is shown in FIG. 2 as white bars. For this experiment, SFs are seeded in 96 well plates, 3,000 cells/well. 24 h later, the medium is changed to M199 medium supplemented with 1% FBS. One day after the medium change, cytokines or combinations thereof are added to the cultures, each cytokine being added to a final concentration of 25 ng/mL. 72 h after cytokine addition, the supernatant is collected and processed in the MMP1 ELISA as described in the protocol given above. In parallel with this experiment, SFs are triggered, using the same protocol, with the supernatant of THP1 cells (2-fold diluted in M199+1% FBS) treated with the same cytokines or combinations of cytokines for 48 h in M199 medium+1% FBS. The induction of the MMP1 expression by SFs triggered with the supernatants of TNF-α-treated THP1 cells is stronger (>4.5 fold induction) as compared to the SFs triggered with recombinant TNF-α alone (3-fold induction) and almost equals the 5-fold induction obtained by a mixture of 3 purified cytokines (TNF-α, IL1βb, OSM). […] As the role of TNF-α in the RA pathogenesis is validated (TNF-α-blockers such as Infliximab and Etanercept show some efficacy in the treatment of RA patients) and the THP-1 cells are representative for monocytes/macrophages present in the joint of RA patients, the TNF-α-based trigger mixture prepared by contacting THP-1 cells with TNF-α will contain factors present in the joints of RA patients and subsequently is relevant to RA. This TNF-α-based complex trigger, further referred to as the ‘complex trigger’, will further be used as basis for the ‘MMP assay’. […]

MAPKAPK5 = target: T1, MAPKAPK5 (Homo sapiens, UniProt Q8IW41); test: MAPKAP-K5 FlashPlate kinase assay; type: biochemical; settings: 0.6 μM ATP, 30 minutes, room temperature
T1 sequence (Q8IW41 1-471 isoform Q8IW41-2): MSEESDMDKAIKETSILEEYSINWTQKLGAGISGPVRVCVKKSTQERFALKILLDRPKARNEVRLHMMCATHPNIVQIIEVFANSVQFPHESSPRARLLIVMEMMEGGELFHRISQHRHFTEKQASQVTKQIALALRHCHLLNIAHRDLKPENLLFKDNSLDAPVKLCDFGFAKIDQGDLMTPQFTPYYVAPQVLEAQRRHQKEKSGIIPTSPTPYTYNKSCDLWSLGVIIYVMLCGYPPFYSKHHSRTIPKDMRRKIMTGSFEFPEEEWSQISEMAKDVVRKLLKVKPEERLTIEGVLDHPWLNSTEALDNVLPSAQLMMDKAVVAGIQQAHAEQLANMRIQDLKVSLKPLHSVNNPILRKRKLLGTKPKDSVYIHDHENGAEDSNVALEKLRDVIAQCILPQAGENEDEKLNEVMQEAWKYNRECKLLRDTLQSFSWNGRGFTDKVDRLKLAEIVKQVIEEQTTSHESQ
Description: MAPKAP-K5 reactions are performed in FlashPlate format using 0.1 or 0.2 μCi 33P-ATP; 0.6 μM ATP; 1 mU MAPKAP-K5; 3 μM MAPKAP-K5 peptide substrate, incubated at room temperature for 30 minutes.
The MAPKAP-K5 kinase reaction is performed in a 384 well polypropylene plate (Matrix Technologies) and then transferred to a streptavidin-coated 384 well flashplate (Perkin-Elmer). To wells containing 2 μL test compound or standard inhibitor, 13 μL Enzyme mix or diluent are added using a Hydra (Robbins Scientific). Reactions are started by addition of 10 μL of [2.5×] substrate cocktail using a Multidrop (Thermo-Labsystems), to give final concentrations in the assay of: • 1 mU MAPKAP-K5 • 3 μM MAPKAP-K5 peptide substrate • 0.6 μM ATP • 0.004 μCi [33P]-γ-ATP/μL • 1× reaction buffer
Plates are incubated at room temperature for 30 minutes. Reactions are terminated by the addition of 25 μL EDTA (50 mM) to each well using a Micro-fill (Biotek). Reactions are transferred to a streptavidin-coated flashplate using a Zymark robotic system. Plates are incubated for 60 minutes at room temperature. All wells are washed 3 times with 100 μl phosphate buffered saline using a Tecan plate washer. Radioactivity is determined by scintillation counting of the flashplate (empty wells) on a Packard TopCount.
Enzyme Mix: • Enzyme • 50 mM Tris Hcl (pH 7.5) • 0.1 mM EGTA • 2 mM DTT • 1 mg/mL BSA
Reaction Buffer: • 50 mM Tris Hcl (pH 7.5) • 0.1 mM EGTA • 10 mM Magnesium acetate • 2 mM DTT

IC50 (MAPKAPK5) [nM]	SMILES	IC50 [1] [nM]
101 to 500	CC(C)N1CC2CCC1CN2c1ccc(Nc2ncc(-c3coc(C(N)=O)c3)n3ccnc23)cc1 (centres unmarked) [Compound 10, 4-{8-(4-(5-isopropyl-1-2,5-diazabicyclo[2.2.2]octan-2-yl)phenylamino)-imidazo[1,2-a]pyrazin-5-yl}-furan-2-carboxamide]	> 1000
0.01 to 100	CC(C)N1C[C@H]2C[C@@H]1CN2c1ccc(Nc2ncc(-c3coc(C(N)=O)c3)n3ncnc23)cc1 [Compound 27, 4-[8-({4-[(1R,4R)-5-isopropyl-2,5-diazabicyclo[2.2.1]hept-2-yl]phenyl}amino)[1,2,4]triazolo[1,5-a]pyrazin-5-yl]-2-furamide]	–

SMILES	IC50 (MAPKAPK5) [nM]	IC50 [1] [nM]
CC(C)N1C2CCC1CN(c1ccc(Nc3ncc(-c4coc(C(N)=O)c4)n4ccnc34)cc1)C2 [Compound 14, 4-{8-(4-(8-isopropyl-3,8-diazabicyclo[3.2.1]octan-3-yl)phenylamino)-imidazo[1,2-a]pyrazin-5-yl}-furan-2-carboxamide]	101 to 500	> 1000
